These results are taken from patent US20250346600A1, “TRICYCLIC DERIVATIVES AND RELATED USES” (MOMA Therapeutics, Inc., priority 2023, published 2025).

One experiment deals with HCT116 cells. Nature of the experiment: HCT116 (MSI) 7 day viability, CellTiter Glo. The class given is cell-based. As to conditions: Homo sapiens, HCT-116, 168 h, 7 days, read-out: HCT116 (MSI) Viability 7 Day Abs AC50. How it is done: (§1) Compounds were dissolved in DMSO to a concentration of 10 mM. Compounds were then serially diluted in 10 3-fold steps in DMSO using an EVO (Tecan). Plates were then spun down for 1 minute at 1,000 RPM at room temperature.
(§2) The colon carcinoma lines HCT116 (RRID: CVCL_0291) and HT29 (RRID: CVCL_0320) were obtained from ATCC. […] All cells were maintained at 37° C. with 5% CO2 incubator.
(§3) After harvesting, cells were spun down for 5 minutes at 1200 RPM. Cells were resuspended in 10 mL of growth media and counted using Countess (Thermo Fisher). Cell concentrations were adjusted to 50 cells/well for HCT116 and 500 cells/well for HT29. 50 μL of diluted cells were added to compound treated 384 well plates using a 12 channel, 300 uL electronic handheld pipette (Integra). Cell treated plates were placed in 37 C with 5% CO2 incubator for 7 days.
(§4) Afterwards, cells were removed from incubator and equilibrated to room temperature for 15 minutes. 35 uL of CellTiter Glo (Promega #G7573) reagent were added to each well using a 12 channel, 300 uL electronic handheld pipette (Integra). Plates were incubated for 20 minutes at room temperature. Luminescence quantification was performed using Envision (PerkinElmer).
(§5) For data analysis, the assay background signal was determined in wells containing medium, but no cells. Potencies were calculated by linear least squares fit to the four-parameter logistic IC50 equation. The reported IC50 values are the geometrical mean of at least 2 independent replicates.

For experiment [1], the target named is Full length WRN protein (aa 2-1432) (Homo sapiens (Human), UniProt Q14191). Nature of the experiment: WRN ATPase ADP-Glo biochemical assay, Assay Format B (100 μM ATP). As to conditions: 0.25 nM WRN, 100 nM C6.18 ssDNA, 60 min preincubation, read-out: ATPase ADPGlo AC50 (uM)- Assay Format B.
Another experiment relates to HT29 cells. Description: HT29 (MSS) 7 day viability, CellTiter Glo. The class given is cell-based. Particulars: Homo sapiens, HT-29, 168 h, 7 days, read-out: HT29 (MSS) Viability 7 Day CTGAbs AC50. The procedure: as §1, §2, §3, §4, §5

The structures appear in SMILES notation.

Full length WRN protein (aa 2-1432), sequence (Q14191 2-1432): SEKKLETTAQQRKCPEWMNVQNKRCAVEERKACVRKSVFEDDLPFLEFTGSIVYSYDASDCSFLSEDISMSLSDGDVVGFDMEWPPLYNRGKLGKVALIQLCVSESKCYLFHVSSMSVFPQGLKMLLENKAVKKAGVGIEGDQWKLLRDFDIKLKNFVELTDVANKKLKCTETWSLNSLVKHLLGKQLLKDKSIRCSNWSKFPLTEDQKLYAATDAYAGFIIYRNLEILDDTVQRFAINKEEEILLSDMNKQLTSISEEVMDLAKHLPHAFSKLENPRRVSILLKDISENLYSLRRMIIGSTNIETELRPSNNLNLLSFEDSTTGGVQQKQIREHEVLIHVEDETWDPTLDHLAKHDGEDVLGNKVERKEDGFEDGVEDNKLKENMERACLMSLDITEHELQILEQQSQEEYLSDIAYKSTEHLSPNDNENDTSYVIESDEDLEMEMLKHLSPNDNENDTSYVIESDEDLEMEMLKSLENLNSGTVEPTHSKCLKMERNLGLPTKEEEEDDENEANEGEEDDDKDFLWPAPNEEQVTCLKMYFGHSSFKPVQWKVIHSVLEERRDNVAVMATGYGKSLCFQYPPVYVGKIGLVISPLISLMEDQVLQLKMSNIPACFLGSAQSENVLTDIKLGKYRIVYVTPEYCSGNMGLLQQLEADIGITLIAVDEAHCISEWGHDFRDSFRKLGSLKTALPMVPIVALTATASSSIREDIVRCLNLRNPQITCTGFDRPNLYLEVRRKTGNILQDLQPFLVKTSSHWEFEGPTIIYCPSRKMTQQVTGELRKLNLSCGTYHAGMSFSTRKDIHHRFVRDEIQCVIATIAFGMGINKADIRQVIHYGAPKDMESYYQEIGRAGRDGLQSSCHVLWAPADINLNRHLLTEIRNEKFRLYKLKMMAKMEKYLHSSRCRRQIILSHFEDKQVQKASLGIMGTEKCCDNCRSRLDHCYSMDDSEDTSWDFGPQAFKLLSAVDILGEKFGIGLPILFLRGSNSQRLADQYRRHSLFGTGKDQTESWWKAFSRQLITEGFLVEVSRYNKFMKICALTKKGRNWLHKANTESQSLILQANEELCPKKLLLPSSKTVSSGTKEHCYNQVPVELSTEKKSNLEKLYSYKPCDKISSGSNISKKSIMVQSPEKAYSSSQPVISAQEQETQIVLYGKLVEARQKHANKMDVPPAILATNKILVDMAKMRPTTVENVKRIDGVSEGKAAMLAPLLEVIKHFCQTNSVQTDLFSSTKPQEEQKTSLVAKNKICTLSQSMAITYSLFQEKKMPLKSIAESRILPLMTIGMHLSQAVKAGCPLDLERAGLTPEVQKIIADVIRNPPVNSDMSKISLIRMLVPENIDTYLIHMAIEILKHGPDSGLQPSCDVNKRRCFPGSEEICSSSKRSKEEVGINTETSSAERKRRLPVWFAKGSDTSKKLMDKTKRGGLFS

In the case of `C=CC(=O)N1CCc2nn(-c3ccc(C4CC4)cc3O)c3c2C(C1)N(C(=O)c1cnc(SC)c(F)c1N)CC3` (stereo not drawn) [Compound 223, 1-(5-(4-amino-5-fluoro-6-(methylthio)nicotinoyl)-2-(4-cyclopropyl-2-hydroxyphenyl)-2,3,4,5,5a,6,8,9-octahydro-7H-1,2,5,7-tetraazabenzo[cd]azulen-7-yl)prop-2-en-1-one], the results for the AC50 (in the experiment with HCT116 cells; in experiment [1]; with HT29 cells) were 1 to 100 nM, 0.0015 to 0.005 µM and greater than 3000 nM, respectively.

As to `C=CC(=O)N1CCc2nn(-c3ccc(C4CC4)c(F)c3O)c3c2C(C1)N(C(=O)c1cnc(C(F)(F)F)cc1N)CC3` (stereo not drawn) [Compound 203, 1-(5-(4-amino-6-(trifluoromethyl)nicotinoyl)-2-(4-cyclopropyl-3-fluoro-2-hydroxyphenyl)-2,3,4,5,5a,6,8,9-octahydro-7H-1,2,5,7-tetraazabenzo[cd]azulen-7-yl)prop-2-en-1-one], the AC50 in the experiment with HCT116 cells was 1 to 100 nM; in experiment [1], 0.005 to 0.015 µM; in the experiment with HT29 cells, greater than 3000 nM.

Turning to `C=CC(=O)N1CCc2nn(-c3ccc(C4CCC4)cc3O)c3c2C(C1)N(C(=O)c1ccc(Br)c2[nH]c(OC(F)F)nc12)CC3` (stereo not drawn) [Compound 88, 1-(5-(7-bromo-2-(difluoromethoxy)-1H-benzo[d]imidazole-4-carbonyl)-2-(4-cyclobutyl-2-hydroxyphenyl)-2,3,4,5,5a,6,8,9-octahydro-7H-1,2,5,7-tetraazabenzo[cd]azulen-7-yl)prop-2-en-1-one], the AC50 in the experiment with HCT116 cells was 1 to 100 nM; in experiment [1], 0.005 to 0.015 µM; with HT29 cells it was greater than 3000 nM.

Regarding `C=CC(=O)N1CCc2nc(-c3ccc(C4CCC4)cc3)n3c2C(C1)N(C(=O)c1ccc(Br)c2[nH]c(C(F)F)nc12)CC3` (stereo not drawn) [Compound 237, 1-(5-(7-bromo-2-(difluoromethyl)-1H-benzo[d]imidazole-4-carbonyl)-2-(4-cyclobutylphenyl)-4,5,5a,6,8,9-hexahydro-1,2a,5,7-tetraazabenzo[cd]azulen-7(3H)-yl)prop-2-en-1-one], the half-maximal activity concentration (AC50) in the experiment on HCT116 cells was 1 to 100 nM; in experiment [1] it was 0.0015 to 0.005 µM; in the experiment with HT29 cells, greater than 3000 nM.

As for `C=CC(=O)N1CCc2nn(-c3cc(F)c(C4CC4)cc3O)c3c2C(C1)N(C(=O)c1cnc(C(F)(F)F)cc1N)CC3` (stereo not drawn) [Compound 224, 1-(5-(4-amino-6-(trifluoromethyl)nicotinoyl)-2-(4-cyclopropyl-5-fluoro-2-hydroxyphenyl)-2,3,4,5,5a,6,8,9-octahydro-7H-1,2,5,7-tetraazabenzo[cd]azulen-7-yl)prop-2-en-1-one], the AC50 in the experiment with HCT116 cells was 1 to 100 nM; in experiment [1] it was 0.005 to 0.015 µM; in the experiment on HT29 cells it was greater than 3000 nM.

With `C=CC(=O)N1CCc2nn(-c3ccc(C4CC4)cc3)c3c2C(C1)N(C(=O)c1c(N)nc(C(F)(F)F)c(F)c1N)CC3` (stereo not drawn) [Compound 220, 1-(2-(4-cyclopropylphenyl)-5-(2,4-diamino-5-fluoro-6-(trifluoromethyl)nicotinoyl)-2,3,4,5,5a,6,8,9-octahydro-7H-1,2,5,7-tetraazabenzo[cd]azulen-7-yl)prop-2-en-1-one], the values for the AC50 (in the experiment on HCT116 cells; in experiment [1]; with HT29 cells) were 1 to 100 nM, 0.0015 to 0.005 µM and greater than 3000 nM, respectively.

Turning to `C=CC(=O)N1CCc2nn(-c3ccc(CC(F)(F)F)cc3O)c3c2C(C1)N(C(=O)c1cnc(C(F)(F)F)cc1N)CC3` (stereo not drawn) [Compound 180, 1-(5-(4-amino-6-(trifluoromethyl)nicotinoyl)-2-(2-hydroxy-4-(2,2,2-trifluoroethyl)phenyl)-2,3,4,5,5a,6,8,9-octahydro-7H-1,2,5,7-tetraazabenzo[cd]azulen-7-yl)prop-2-en-1-one], the results for the AC50 (with HCT116 cells; in experiment [1]; in the experiment on HT29 cells) were 1 to 100 nM, 0.015 to 0.055 µM and greater than 3000 nM, respectively.

Turning to `C=CC(=O)N1CCc2nn(-c3ccc(C4CC4)cc3)c3c2C(C1)N(C(=O)c1cnc(C(F)(F)F)cc1NC)CC3` (stereo not drawn) [Compound 179, 1-(2-(4-cyclopropylphenyl)-5-(4-(methylamino)-6-(trifluoromethyl)nicotinoyl)-2,3,4,5,5a,6,8,9-octahydro-7H-1,2,5,7-tetraazabenzo[cd]azulen-7-yl)prop-2-en-1-one], the AC50 with HCT116 cells is 100 to 250 nM; in experiment [1], 0.015 to 0.055 µM; in the experiment on HT29 cells it was greater than 3000 nM.

For the molecule `C=CC(=O)N1CCc2nn(-c3ccc(C4CC4)cc3O)c3c2C(C1)N(C(=O)c1cnc(C(F)(F)F)nc1N)CC3` (stereo not drawn) [Compound 197, 1-(5-(4-amino-2-(trifluoromethyl)pyrimidine-5-carbonyl)-2-(4-cyclopropyl-2-hydroxyphenyl)-2,3,4,5,5a,6,8,9-octahydro-7H-1,2,5,7-tetraazabenzo[cd]azulen-7-yl)prop-2-en-1-one], the AC50 with HCT116 cells was 1 to 100 nM; in experiment [1], 0.005 to 0.015 µM; in the experiment with HT29 cells it was greater than 3000 nM.

As to `C=CC(=O)N1CC(OC2CN(C(C)=O)C2)c2nn(-c3ccc(C4CCC4)cc3)c3c2C(C1)N(C(=O)c1ccc(C(F)(F)F)nc1)CC3` (stereo not drawn) [Compound 205, 1-(9-((1-acetylazetidin-3-yl)oxy)-2-(4-cyclobutylphenyl)-5-(6-(trifluoromethyl)nicotinoyl)-2,3,4,5,5a,6,8,9-octahydro-7H-1,2,5,7-tetraazabenzo[cd]azulen-7-yl)prop-2-en-1-one], the AC50 in the experiment on HCT116 cells is 1 to 100 nM; in experiment [1], 0.005 to 0.015 µM; with HT29 cells, greater than 3000 nM.

In the case of `C=CC(=O)N1CCc2nn(-c3ccc(C4CC4)c(F)c3O)c3c2C(C1)N(C(=O)c1cnc(Br)cc1N)CC3` (stereo not drawn) [Compound 215, 1-(5-(4-amino-6-bromonicotinoyl)-2-(4-cyclopropyl-3-fluoro-2-hydroxyphenyl)-2,3,4,5,5a,6,8,9-octahydro-7H-1,2,5,7-tetraazabenzo[cd]azulen-7-yl)prop-2-en-1-one], the figures for the AC50 (in the experiment on HCT116 cells; in experiment [1]; in the experiment with HT29 cells) were 1 to 100 nM, 0.0015 to 0.005 µM and greater than 3000 nM, respectively.

`C=CC(=O)N1CCc2nn(-c3ccc(C4CCC4)cc3)c3c2C(C1)N(C(=O)c1cnc2c(C(F)(F)F)nn(C)c2c1)CC3` (stereo not drawn) [Compound 185, 1-(2-(4-cyclobutylphenyl)-5-(1-methyl-3-(trifluoromethyl)-1H-pyrazolo[4,3-b]pyridine-6-carbonyl)-2,3,4,5,5a,6,8,9-octahydro-7H-1,2,5,7-tetraazabenzo[cd]azulen-7-yl)prop-2-en-1-one]: the AC50 in the experiment on HCT116 cells was 1 to 100 nM; in experiment [1], 0.015 to 0.055 µM; in the experiment on HT29 cells, 1000 to 3000 nM.

With `C=CC(=O)N1CCc2nn(-c3ccc(C4CCC4)cc3O)c3c2C(C1)N(C(=O)c1cnc(Br)cc1N)CC3` (stereo not drawn) [Compound 132, 1-(5-(4-amino-6-bromonicotinoyl)-2-(4-cyclobutyl-2-hydroxyphenyl)-2,3,4,5,5a,6,8,9-octahydro-7H-1,2,5,7-tetraazabenzo[cd]azulen-7-yl)prop-2-en-1-one], the AC50 with HCT116 cells was 1 to 100 nM; in experiment [1] it was 0.0015 to 0.005 µM; in the experiment with HT29 cells, greater than 3000 nM.

Consider `C=CC(=O)N1CCc2nn(-c3ccc(C4CC4)cc3O)c3c2C(C1)N(C(=O)c1ccc(C(F)(F)F)nc1N)CC3` (stereo not drawn) [Compound 172, 1-(5-(2-amino-6-(trifluoromethyl)nicotinoyl)-2-(4-cyclopropyl-2-hydroxyphenyl)-2,3,4,5,5a,6,8,9-octahydro-7H-1,2,5,7-tetraazabenzo[cd]azulen-7-yl)prop-2-en-1-one], for which the figures for the AC50 (with HCT116 cells; in experiment [1]; in the experiment with HT29 cells) were 1 to 100 nM, 0.005 to 0.015 µM and greater than 3000 nM, respectively.

With `C=CC(=O)N1CC(OC2CC2)c2nn(-c3ccc(C4CC4)cc3O)c3c2C(C1)N(C(=O)c1cnc(C(F)(F)F)cc1N)CC3` (stereo not drawn) [Compound 232, 1-(5-(4-amino-6-(trifluoromethyl)nicotinoyl)-9-cyclopropoxy-2-(4-cyclopropyl-2-hydroxyphenyl)-2,3,4,5,5a,6,8,9-octahydro-7H-1,2,5,7-tetraazabenzo[cd]azulen-7-yl)prop-2-en-1-one], the AC50 was 1 to 100 nM in the experiment on HCT116 cells, 0.005 to 0.015 µM in experiment [1] and greater than 3000 nM in the experiment with HT29 cells.

With `C=CC(=O)N1CCc2nn(-c3ccc(C4CC4)cc3O)c3c2C(C1)N(C(=O)c1cnc(SC(F)(F)F)cc1N)CC3` (stereo not drawn) [Compound 209, 1-(5-(4-amino-6-((trifluoromethyl)thio)nicotinoyl)-2-(4-cyclopropyl-2-hydroxyphenyl)-2,3,4,5,5a,6,8,9-octahydro-7H-1,2,5,7-tetraazabenzo[cd]azulen-7-yl)prop-2-en-1-one], the concentration at half-maximal activity (AC50) is 1 to 100 nM in the experiment on HCT116 cells, 0.0015 to 0.005 µM in experiment [1] and greater than 3000 nM in the experiment with HT29 cells.

Consider `C=CC(=O)N1CCc2nn(-c3cc(F)c(C4CC4)cc3O)c3c2C(C1)N(C(=O)c1cnc(C(C)(F)F)c(F)c1N)CC3` (stereo not drawn) [Compound 253, 1-[7-[4-amino-6-(1,1-difluoroethyl)-5-fluoro-pyridine-3-carbonyl]-3-(4-cyclopropyl-5-fluoro-2-hydroxy-phenyl)-2,3,7,10-tetrazatricyclo[6.4.1.04,1 3]trideca-1,4(13)-dien-10-yl]prop-2-en-1-one], for which the AC50 was 1 to 100 nM in the experiment on HCT116 cells, 0.005 to 0.015 µM in experiment [1] and greater than 3000 nM with HT29 cells.
